These are literature values, as cited in PMC5852172, “Characterization of antimicrobial and hemolytic properties of short synthetic cationic lipopeptides based on QSAR/QSTR approach” (Amino Acids, 2017).

Series [1] concerns Enterococcus faecalis (ATCC 29212). Conditions: minimum inhibitory concentration, CLSI procedure, E. faecalis ATCC 29212; ref [1] Greber et al. 2017. From the text:
Supplement 726_2017_2530_MOESM1_ESM.docx, table 1: Table 1S. Antimicrobial activity toward Gram-positive strains and toxicity toward human red blood cells. | column: Enterococcus fecalis

For series [2], the system named is Bacillus subtilis (ATCC 6633). Conditions: minimum inhibitory concentration, CLSI procedure, B. subtilis ATCC 6633; ref [1] Greber et al. 2017. The text has this:
Supplement 726_2017_2530_MOESM1_ESM.docx, table 1: Table 1S. Antimicrobial activity toward Gram-positive strains and toxicity toward human red blood cells. | column: Bacillus subtillis

Series [3] deals with Staphylococcus aureus (ATCC 25923). Conditions: minimum inhibitory concentration, CLSI procedure, S. aureus ATCC 25923; ref [1] Greber et al. 2017. From the text: Supplement 726_2017_2530_MOESM1_ESM.docx, table 1: Table 1S. Antimicrobial activity toward Gram-positive strains and toxicity toward human red blood cells. | column: Staphylococcus aureus
Series [4] concerns human red blood cells. The note with it: lowest concentration of lipopeptide inducing 10% hemolysis of human red blood cells; ref [1] Greber et al. 2017. From the text:
Supplement 726_2017_2530_MOESM1_ESM.docx, table 1: Table 1S. Antimicrobial activity toward Gram-positive strains and toxicity toward human red blood cells. | column: Haemolysis

Series [5] has as its system S. epidermidis (PCM 2118). The note with it: minimum inhibitory concentration, CLSI procedure, ref [1] Greber et al. 2017. From the text: Supplement 726_2017_2530_MOESM1_ESM.docx, table 1: Table 1S. Antimicrobial activity toward Gram-positive strains and toxicity toward human red blood cells. | column: Staphylococcus epidermidis

For C16-KKKK-NH2, the “Enterococcus fecalis MIC” value in series [1] was 16 µg/mL. Moreover, the “Bacillus subtillis MIC” value in series [2] was 4 µg/mL. The “Staphylococcus aureus MIC” value in series [3] is given as 4 µg/mL. Also, the “Haemolysis MHC” value in series [4] is given as 16 µg/mL. In series [5], the “Staphylococcus epidermidis MIC” value was 4 µg/mL.

Regarding C16-KKK-NH2, the “Enterococcus fecalis MIC” value in series [1] is 16 µg/mL. Also, in series [2], the “Bacillus subtillis MIC” value is reported as 8 µg/mL. In series [3], the “Staphylococcus aureus MIC” value was 8 µg/mL. Further, the “Haemolysis MHC” value in series [4] is 32 µg/mL. In addition, the “Staphylococcus epidermidis MIC” value in series [5] is 4 µg/mL.

Turning to C16-KK-NH2, in series [1], the “Enterococcus fecalis MIC” value was 8 µg/mL. For the same substance, the “Bacillus subtillis MIC” value in series [2] is listed as 4 µg/mL. For the same substance, the “Staphylococcus aureus MIC” value in series [3] is recorded as 8 µg/mL. Further, in series [4], the “Haemolysis MHC” value is 256 µg/mL. Also, the “Staphylococcus epidermidis MIC” value in series [5] is recorded as 4 µg/mL.
